Patent EP0465913B1, “Diaminotrifluoromethylpyrimidine derivatives, process for their production and phospholipase A2 inhibitor containing them” (ISHIHARA SANGYO KAISHA, LTD., priority 1990, dated 1992)
Read-outs that look alike come from different tables or passages of the source.

Key:
[1] = test system: experimental acute pancreatitis model; experiment: Effects against acute pancreatitis (Test Example 8, closed duodenal loop method, lesion scores); assay type: in vivo, Crj-CD male rats; settings: Rattus norvegicus, 10 mg/kg single intravenous injection, sodium salt, 6 hours after ventrotomy
Method: Using Crj-CD male rats, each test group consisted of 3 rats. An experimental acute pancreatitis model was prepared by a closed duodenal loop method under anethesia with halothane (manufactured by Hoechst Japan) and nitrous oxide (manufactured by Sumitomo Seika K.K.) applied by a general inhalation anesthesia machine (Model EM2 and halothane evaporator F-Model). Each compound (subjected to the test in the form of a sodium salt) was continuously intravenously injected into the tail vein in an amount of 0.4 ml/100 g to 0.6 ml/100 g at a rate of 0.05 ml per minute by a pump (Technicon AA II Proportioning Pump III, manufactured by Technicon Instruments Corporation) or rapidly intravenously injected. No injection was made to a control group. Gross pathological examination was conducted upon expiration of 6 hours after the ventrotomy in the case of the group to which the compound was administered. With respect to each of four lesions among pancreatic lesions i.e. petechia, ecchymosis, pancreatic necrosis and abdominal fatty necrosis, the grade and the distribution of lesions were scored with five grades of 0, 0.5, 1, 2 and 3 (severe lesions are 3). The sum of all lesions was designated as scores of pancreatitis lesions, and the sum of the score of petechia and the score of ecchymosis only was designated as scores of hemorrhagic lesions. The pancreatitis inhibition rate (%) and the hemorrhage inhibition rate (%) were obtained by the following formulas, and the results are shown in Table 13. Pancreatitis inhibition rate (%) = (l -(H)/(G)) x 100 [formula] • H: Scores of pancreatitis lesions of the group to which a test compound was administered. • G: Scores of pancreatitis lesions of the control group. Hemorrhage inhibition rate (%) = (l -(J)/(I)) x 100 [formula] • J: Scores of hemorrhagic lesions of the group to which a test compound was administered. • I: Scores of hemorrhagic lesions of the control group.

[2] = molecular target: T1, Porcine pancreatic phospholipase A2 (Sus scrofa, UniProt P00592); experiment: Phospholipase A2 inhibitory activity, method B (L-α-dipalmitoylphosphatidylcholine substrate); assay type: biochemical; settings: 37°C for 30 minutes; for inhibition at 1000 ppm: 1,000 ppm, read-out: % inhibition of PLA2 (1,000 ppm)
T1 construct: purchased Boehringer Mannheim·Yamanouchi K.K. 161454·122416
T1 sequence (P00592 23-146): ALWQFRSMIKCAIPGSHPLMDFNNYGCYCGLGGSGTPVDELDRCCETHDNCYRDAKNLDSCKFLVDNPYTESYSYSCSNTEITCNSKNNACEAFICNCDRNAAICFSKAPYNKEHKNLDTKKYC
Method: To a solution prepared by dissolving 9.2 mg of L-α-dipalmitoylphosphatidylcholine (manufactured by Nichiyu Liposome K.K.) in 0.5 ml of chloroform, a solution prepared by dissolving 32 mg of sodium cholate (manufactured by Wako Pure Chemical Industries, Ltd.) in 0.5 ml of methanol, was added, followed by mixing. The solvent of the mixture was removed under a nitrogen stream, and then 2.5 ml of a 250 mM sodium chloride solution [prepared by dissolving sodium chloride in a 100 mM Tris-HCl buffer solution {tris(hydroxymethyl)aminomethane (manufactured by Nacalai Tesque K.K.) was adjusted to pH8.0 with hydrochloric acid}] was added thereto, and the mixture was dissolved under stirring to obtain a substrate.
Porcine pancreatic phospholipase A2 [(161454·122416) manufactured by Boehringer Mannheim·Yamanouchi K.K.] was used.
To a 96 well microtitration plate, 20 µl of a solution containing calcium chloride, bovine serum alubmin (manufactured by Sigma Chemical, Co.) and a Tris-HCl buffer solution (pH8.0) at concentrations of 25 mM, 4.5 mg/ml and 100 mM, respectively, 5 µl of a solution prepared by dissolving 10 mg of a test compound in 500 µl of diemthylsulfoxide, followed by an addition of 500 µl of a 200 mM Tris-HCl buffer solution, 5 µl of an enzyme solution (10 µg/ml) [prepared by dissolving the enzyme in a bovine serum alubmin solution (prepared by dissolving bovine serum alubmin in a 100 mM Tris-HCl buffer solution at a concentration of 1 mg/ml)] and 20 µl of the substrate, were added and reacted at 37°C for 30 minutes. After termination of the reaction, the released free fatty acid was quantitatively analyzed in accordance with the ACS-ACOD (acyl CoA synthetase-acyl CoA oxidase) method [a kit of NEFA C test wako (manufactured by Wako Pure Chemical Industries, Ltd.) was used]. The quantitative analysis was made by means of Microplate ELISA Reader (Model 2550EIA Reader, manufactured by Bio-Rad Laboratories) at a wavelength of 540 nm. Separately, such experiments as mentioned above, were carried out at various concentrations (1 µg/ml, 0.75 µg/ml, 0.5 µg/ml and 0.25 µg/ml) of phospholipase A2 without a test compound. Then, the concentration of the free fatty acid versus the concentration of phospholipase A2 was plotted.
From this standard curve, the apparent concentration of phospholipase A2 in the case with a test compound, was read. Then, the percent inhibition of the enzyme was calculated by the following formula. Percent inhibition (%) = (l -(A)/(B)) x 100 [formula] • A: Apparent enzyme concentration when a test compound is added. • B: True enzyme concentration when a test compound is added.

[3] = test system: carrageenin edema; experiment: Inhibitory activity on carrageenin edema; assay type: in vivo, Wistar male rats; settings: rat, paw swelling volume three hours after carrageenin
Method: Using Wistar male rats (body weight: about 100 g), each test group consisted of 5 rats. A test compound was mixed with Tween 80 [polyoxyethylenesorbitan monooleate (manufactured by Nacalai Tesque K.K.)], and distilled water was added thereto to obtain a 2% Tween 80 suspension, or it was dissolved in the form of a salt in water to obtain an aqueous solution. Either the suspension or the aqueous solution was orally administered in an amount of 200 mg/kg, 100 mg/kg, 50 mg/kg or 25 mg/kg. One hour later, 0.1 ml of a 1% λ-carrageenin solution dissolved in a physiological saline was injected subcutaneously to the right hind paw of each rat to cause inflamation. Three hours later, the paw volume was measured by a paw volume measuring device (manufactured by Ugobasiee K.K.). A swelling volume was obtained from the difference from the value before the inflammation. Inhibition rate (%) = (l -(F)/(E)) x 100 [formula] • F: Average swelling volume in the group to which a test compound was administered. • E: Average swelling volume in the control group.

[4] = read-out: Inhibition rate of hemorrhagic lesions (%)
[5] = read-out: Inhibition rate of pancreatitis lesions (%)

SMILES | inhibition in vivo at 10 mg/kg [1, 4] [%] | inhibition in vivo at 10 mg/kg [1, 5] [%] | inhibition at 1000 ppm [2] [%] | also measured
CS(=O)(=O)Nc1ncc(C(F)(F)F)cc1NC(=O)CCc1ccccc1 [compound 64] | 60 | 68 | 61 | –
Cc1cc(C)cc(C(=O)Nc2cc(C(F)(F)F)cnc2NS(C)(=O)=O)c1 [compound 122] | 51 | 51 | 56 | –
CCCCS(=O)(=O)Nc1ncc(C(F)(F)F)cc1NC(=O)C1CC1 [compound 107] | 63 | 61 | – | –
COS(=O)(=O)Nc1ncc(C(F)(F)F)cc1NC(=O)C1CCCCC1 [compound 115] | – | – | 52 | –
COc1ccc(S(=O)(=O)Nc2ncc(C(F)(F)F)cc2NC(=O)c2cccs2)cc1 [compound 109] | – | – | 67 | –
CCOS(=O)(=O)Nc1ncc(C(F)(F)F)cc1NC(=O)c1ccc2c(c1)CCC2 [compound 118] | – | – | 84 | –
Cc1ccc(C(=O)Nc2cc(C(F)(F)F)cnc2NS(C)(=O)=O)s1 [compound 83] | 53 | 51 | 64 | –
CS(=O)(=O)Nc1ncc(C(F)(F)F)cc1NC(=O)CC1CCCC1 [compound 62] | 45 | 61 | 53 | –
CS(=O)(=O)Nc1ncc(C(F)(F)F)cc1NC(=O)C=Cc1ccccc1 [compound 71] | – | – | 77 | –
CCS(=O)(=O)Nc1ncc(C(F)(F)F)cc1NC(=O)C1CC=CCC1 (stereo not drawn) [compound 95] | – | – | 85 | –
CS(=O)(=O)Nc1ncc(C(F)(F)F)cc1NC(=O)C(F)(F)C(F)(F)F [compound 260] | – | – | – | % inhibition of PLA2 (1,000 ppm) [2]: 53%
CCCCCC(=O)Nc1cc(C(F)(F)F)cnc1NS(=O)(=O)N(C)C [compound 110] | – | – | 58 | Inhibition rate (%) ([3]; dose 50 mg/kg orally): 25%
CS(=O)(=O)Nc1ncc(C(F)(F)F)cc1NC(=O)c1ccco1 [compound 85] | 57 | 67 | 33 | –
O=C(Nc1cc(C(F)(F)F)cnc1NS(=O)(=O)c1cccs1)C1CCCCC1 [compound 126] | – | – | 84 | –
CS(=O)(=O)Nc1ncc(C(F)(F)F)cc1NC(=O)c1ccc2c(c1)OCCO2 [compound 34] | 30 | 30 | – | –
C=CCCC(=O)Nc1cc(C(F)(F)F)cnc1NS(C)(=O)=O [compound 74] | 66 | 67 | 33 | –
CCCCS(=O)(=O)Nc1ncc(C(F)(F)F)cc1NC(=O)C(F)(F)Cl [compound 108] | – | – | 61 | –
CS(=O)(=O)Nc1ncc(C(F)(F)F)cc1NC(=O)C#Cc1ccccc1 [compound 75] | – | – | 81 | –
CS(=O)(=O)Nc1ncc(C(F)(F)F)cc1NC(=O)C1CCCCCC1 [compound 67] | – | – | 82 | inhibition in vivo at 25 mg/kg ([3]; po, 3 h, dose 25 mg/kg orally, read-out: Inhibition rate (%)): 19%
COS(=O)(=O)Nc1ncc(C(F)(F)F)cc1NC(=O)c1ccc2c(c1)CCC2 [compound 116] | – | – | 69 | –
